Data as given in patent US20160143971A1, “COMBINATION THERAPY FOR PROSTATE CANCER USING BOTANICAL COMPOSITIONS AND DOCETAXEL” (GENYOUS BIOMED INTERNATIONAL, priority 2013, published 2016).

Columns and labels:
[1] = cited from earlier work
[2] = tested on: LNCaP (androgen-sensitive) human prostate cancer tumors SRCX; assay: Growth of LNCaP prostate cancer tumors SRCX in mice; format: in vivo; conditions: 3 weeks
Protocol: LNCaP prostate cancer was treated for 3 weeks according to the following regimen.

[3] = tested on: androgen-independent metastatic prostate cancer; conditions: TAX 327 phase III study, patients; cited from earlier work
[4] = tested on: human prostate cancer cells in mouse xenografts; conditions: cited from earlier work
[5] = tested on: human prostate cancer cells in culture; conditions: cited from earlier work
PSA = conditions: cited from earlier work

SMILES	water solubility compared with paclitaxel [1]	inhibition of growth of LNCaP tumors ([2]; Aneustat 1652 mg/kg oral gavage QD x 21, Taxotere 10 mg/kg IP d=1, 8, 15, P<0.01)	efficacy in tumor size reduction (FIG. 1) ([2]; Aneustat 1652 mg/kg oral, Taxotere 10 mg/kg IP)	overall response rate [3] [%]	anti-proliferative effect [4]	anti-proliferative effect [5]	PSA expression (PSA)
CC(=O)O[C@@]12CO[C@@H]1C[C@H](O)[C@@]1(C)C(=O)[C@H](O)C3=C(C)[C@@H](OC(=O)[C@H](O)[C@@H](NC(=O)OC(C)(C)C)c4ccccc4)C[C@@](O)([C@@H](OC(=O)c4ccccc4)[C@H]21)C3(C)C [Taxotere®, docetaxel]	more water soluble than paclitaxel	significantly inhibited growth	somewhat more effective	12	–	–	–
COc1cc(CNC(=O)CCCC/C=C/C(C)C)ccc1O [capsaicin]	–	–	–	–	profound anti-proliferative effect	profound anti-proliferative effect	down-regulates PSA expression
O=C1c2c(O)ccc(O)c2C(=O)c2c(NCCNCCO)ccc(NCCNCCO)c21 [mitoxantrone]	–	–	–	7	–	–	–
